# Assay results: patent US10221178B2, “Purine inhibitors of human phosphatidylinositol 3-kinase delta” (MERCK SHARP & DOHME CORP., priority 2015, dated 2019)
# Columns and labels:
# PI3Kdelta = PI3Kdelta (Homo sapiens (Human), UniProt O00329); assay: HTRF PI3K biochemical assay, delta isoform; conditions: 0.3 nM enzyme, 100 uM ATP, 5 uM PIP2, form screened: Neutral
# From the text: (§1) HTRF PI3K Biochemical Assay to Measure Intrinsic Potency of Compound Inhibitors
# (§2) The PI3-Kinase biochemical assays were developed to measure the intrinsic potency and compound dependent inhibition of the alpha, beta, delta, and gamma PI3K isoform enzymes.
# (§3) This assay was developed and further optimized from a kit produced by Upstate (Millipore catalog #33-047) and has been configured for HTS (high throughput screening) and SAR screening. Briefly, this procedure exploits the exquisite specificity and high affinity binding of enzyme reaction substrate phosphatidyl(3,4,5)triphosphate (PIP3) to the GRP1 pleckstrin homology (PH) domain to generate the signal. In the absence of PIP3, an HTRF (Homogeneous Time-Resolved Fluorescence energy transfer) complex is formed consisting of europium (Eu)-labeled anti-GST, GSTtagged GRP1-PH domain, biotin-PIP3 and streptavidin conjugated APC. The native PIP3 produced by PI3-Kinase activity disrupts in a competitive manner the biotin-PIP3 from the PH domain, resulting in the loss of energy transfer (HTRF complex) and a decrease in the signal. The format of this assay is the same for all 4 isoforms of PI3K; the differences lie in the concentration of enzyme used to achieve robust assay window. The alpha, beta, and delta assays are run at 0.5, 1, and 0.3 nM enzymes and the gamma assay is run at 5 nM enzyme. The ATP concentration is 100 uM in the alpha, beta, and delta assays and 50 uM ATP in the gamma assay. All reactions are run at 5 uM PIP2.
# (§4) Compounds are serially diluted (3-fold in 100% DMSO) across a 384-well polypropylene source plated from column 3 to column 12 and column 13 to column 22, to yield 10 concentration dose response for each test compound. Columns 1, 2, 23 and 24 contain either only DMSO or pharmacological known control inhibitor. Once titrations are made, 2.5 nL of the compounds on 384 well plates are reformatted and transferred by acoustic dispense in quadruplicates to a 1536 assay plate (Greiner) to assay across all four PI3K isoform enzymes.
# (§5) The PI3-Kinase biochemical assay was optimized using the HTRF kit provided by Upstate (Millipore). The assay kit contains six reagents: 1) 4× Reaction Buffer; 2) native PIP2 (substrate); 3) Stop (EDTA); 4) Detection Mix A (Streptavidin-APC); 5) Detection Mix B (Eu-labeled Anti-GST plus GST-tagged PH-domain); 6) Detection Mix C. In addition, the following items were obtained or purchased; PI3Kinase (alpha 14-602, beta 14-603, gamma 14-558 and delta 14-604 from Upstate; Millipore), dithiothreitol (Sigma, D-5545), Adenosine-5′ triphosphate (InVitrogen, Cat#AS001A), native PIP3 (PI(3,4,5)P3, diC8, H^+, CELLSIGNALS, INC. Cat #907) DMSO (Sigma, 472301).
# (§6) PI3Kinase Reaction Buffer is prepared by dilution the stock 1:4 with de-ionized water. DTT, PIP2 and Biotin-PIP3 were added to 1536 assay plate at a final concentration of 5 mM, […] on the day of use. Enzyme addition and compound pre-incubation are initiated by the addition of 1.25 ul of PI3K (at twice its final concentration) in the 1× reaction buffer to all wells using a BioRaptor. Plates are incubated at RT for 15 minutes. Reactions are initiated by addition of 1.25 ul of 2× substrate solution (PIP2 and ATP in 1× reaction buffer) using BioRaptor. Plates are incubated in humidified chamber at RT for one hour. Reactions are quenched by addition of 0.625 uL of stop solution to all wells using the BioRaptor. The quenched reactions are then processed to detect product formation by adding 0.625 uL of Detection Solution to all wells using the BioRaptor (Detection mix C, Detection Mix A, and Detection Mix B combined together in an 18:1:1 ratio prepared 2 hours prior to use). Following a one hour incubation in the dark, the HTRF signal is measured on the Envision plate reader set for 330 nm excitation and dual emission detection at 620 nM (Eu) and 665 nM (APC).
# PI3Kalpha = PI3Kalpha (Homo sapiens (Human), UniProt P42336); assay: HTRF PI3K biochemical assay, alpha isoform (selectivity versus PI3Kalpha); conditions: relative ratio (PI3K-alpha IC50 value/PI3K-delta IC50 value); form screened: Neutral
# Chain of PI3Kalpha (P42336 whole entry, canonical isoform): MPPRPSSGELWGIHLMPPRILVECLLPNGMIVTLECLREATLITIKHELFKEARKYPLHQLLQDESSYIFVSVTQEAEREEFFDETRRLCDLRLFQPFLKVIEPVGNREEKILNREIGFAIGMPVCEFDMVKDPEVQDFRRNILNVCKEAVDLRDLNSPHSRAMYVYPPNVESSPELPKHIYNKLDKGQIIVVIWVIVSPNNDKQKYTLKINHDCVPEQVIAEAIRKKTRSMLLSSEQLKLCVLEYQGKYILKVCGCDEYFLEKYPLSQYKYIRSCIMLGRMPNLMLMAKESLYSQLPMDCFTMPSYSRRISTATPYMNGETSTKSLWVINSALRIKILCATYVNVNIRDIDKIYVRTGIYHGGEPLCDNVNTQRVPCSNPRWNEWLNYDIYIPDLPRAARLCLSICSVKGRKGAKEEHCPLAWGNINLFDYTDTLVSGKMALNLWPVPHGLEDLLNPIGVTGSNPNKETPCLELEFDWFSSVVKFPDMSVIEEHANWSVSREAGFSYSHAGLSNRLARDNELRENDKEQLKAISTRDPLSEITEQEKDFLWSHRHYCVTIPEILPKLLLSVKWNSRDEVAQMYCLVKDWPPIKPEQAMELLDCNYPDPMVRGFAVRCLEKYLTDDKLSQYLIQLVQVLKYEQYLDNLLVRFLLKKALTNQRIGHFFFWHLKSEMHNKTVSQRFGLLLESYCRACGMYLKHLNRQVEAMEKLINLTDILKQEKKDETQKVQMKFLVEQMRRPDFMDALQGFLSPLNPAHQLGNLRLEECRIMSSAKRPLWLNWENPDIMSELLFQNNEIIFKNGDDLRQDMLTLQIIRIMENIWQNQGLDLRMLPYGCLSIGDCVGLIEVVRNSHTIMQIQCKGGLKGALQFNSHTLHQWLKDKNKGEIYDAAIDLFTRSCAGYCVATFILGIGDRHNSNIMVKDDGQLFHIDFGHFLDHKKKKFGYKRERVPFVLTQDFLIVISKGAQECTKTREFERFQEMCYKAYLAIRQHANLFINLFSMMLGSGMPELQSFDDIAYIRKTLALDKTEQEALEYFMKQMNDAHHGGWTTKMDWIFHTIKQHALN
# Chain of PI3Kalpha (P27986 whole entry partner, canonical isoform): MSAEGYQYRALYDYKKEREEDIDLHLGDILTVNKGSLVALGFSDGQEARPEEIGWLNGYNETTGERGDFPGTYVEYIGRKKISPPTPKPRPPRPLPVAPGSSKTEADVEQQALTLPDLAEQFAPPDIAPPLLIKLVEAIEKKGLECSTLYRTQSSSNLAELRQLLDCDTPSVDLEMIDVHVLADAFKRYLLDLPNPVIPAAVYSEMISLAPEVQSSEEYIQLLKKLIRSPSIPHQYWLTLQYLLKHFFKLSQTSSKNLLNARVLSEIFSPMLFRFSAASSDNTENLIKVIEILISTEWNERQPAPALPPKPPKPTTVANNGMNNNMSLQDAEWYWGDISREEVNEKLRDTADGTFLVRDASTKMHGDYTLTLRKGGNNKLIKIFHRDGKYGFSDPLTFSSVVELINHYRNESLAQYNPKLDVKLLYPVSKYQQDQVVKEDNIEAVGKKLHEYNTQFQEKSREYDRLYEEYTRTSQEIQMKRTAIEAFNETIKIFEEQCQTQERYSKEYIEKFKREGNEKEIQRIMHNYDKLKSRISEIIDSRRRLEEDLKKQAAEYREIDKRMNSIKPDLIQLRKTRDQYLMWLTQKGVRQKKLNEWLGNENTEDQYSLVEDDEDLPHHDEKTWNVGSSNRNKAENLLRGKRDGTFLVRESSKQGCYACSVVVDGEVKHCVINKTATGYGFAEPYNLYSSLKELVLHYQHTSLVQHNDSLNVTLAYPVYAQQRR
# From the text: as §1, §2, §3, §4, §5
# as §6, with “[…]. […]” for “(APC).”
# Chain of PI3Kdelta (O00329 whole entry, canonical isoform): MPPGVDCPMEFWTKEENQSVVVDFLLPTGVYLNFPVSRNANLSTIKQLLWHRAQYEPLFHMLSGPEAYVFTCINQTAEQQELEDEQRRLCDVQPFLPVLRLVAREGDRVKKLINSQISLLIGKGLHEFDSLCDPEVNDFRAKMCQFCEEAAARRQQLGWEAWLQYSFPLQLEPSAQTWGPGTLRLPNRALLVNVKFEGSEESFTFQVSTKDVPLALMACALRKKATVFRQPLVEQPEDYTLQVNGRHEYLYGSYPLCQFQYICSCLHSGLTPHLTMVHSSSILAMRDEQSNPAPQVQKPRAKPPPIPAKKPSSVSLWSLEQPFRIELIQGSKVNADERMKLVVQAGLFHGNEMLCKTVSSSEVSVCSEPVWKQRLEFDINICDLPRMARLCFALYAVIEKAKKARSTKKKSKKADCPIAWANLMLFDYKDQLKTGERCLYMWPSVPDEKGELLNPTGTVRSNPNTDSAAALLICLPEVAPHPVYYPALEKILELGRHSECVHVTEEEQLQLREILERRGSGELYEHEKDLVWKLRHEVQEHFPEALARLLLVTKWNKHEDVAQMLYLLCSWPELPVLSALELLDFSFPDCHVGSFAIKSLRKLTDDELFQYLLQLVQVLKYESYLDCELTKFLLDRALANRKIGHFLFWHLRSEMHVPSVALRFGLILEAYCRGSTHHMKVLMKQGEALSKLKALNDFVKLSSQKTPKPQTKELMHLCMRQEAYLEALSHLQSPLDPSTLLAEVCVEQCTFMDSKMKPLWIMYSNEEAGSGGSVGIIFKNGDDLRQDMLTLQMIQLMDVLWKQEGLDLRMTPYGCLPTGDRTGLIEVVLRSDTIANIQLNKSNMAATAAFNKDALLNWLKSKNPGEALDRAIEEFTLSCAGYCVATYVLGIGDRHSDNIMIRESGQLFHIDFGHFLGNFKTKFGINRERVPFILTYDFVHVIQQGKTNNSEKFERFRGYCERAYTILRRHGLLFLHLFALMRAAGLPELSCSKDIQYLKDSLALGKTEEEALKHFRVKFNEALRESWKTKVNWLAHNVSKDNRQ
# Chain of PI3Kdelta (P27986 whole entry partner, canonical isoform): as the sequence (P27986 whole entry partner, canonical isoform) above
SMILES,IC50 (PI3Kdelta) [nM],Selectivity versus PI3Kalpha (PI3Kalpha)
"CCn1c(C(F)F)nc2c(N[C@@H](C)C(=O)N3C[C@@H](C)O[C@@H](C)C3)ncnc21 [Compound 2-5, 8-(difluoromethyl)-N-{(1S)-2-[(cis)-2,6-dimethylmorpholin-4-yl]-1-methyl-2-oxoethyl}-9-ethyl-9H-purin-6-amine]",230,>10
"CC[C@H](Nc1ccnc2c1nc(-c1ccc(C(F)(F)F)nc1)n2CC)C(=O)N1C[C@@H](C)O[C@@H](C)C1 [Compound 3-2, N-[(1S)-1-{[(cis)-2,6-dimethylmorpholin-4-yl]carbonyl}propyl]-3-ethyl-2-[6-(trifluoromethyl)pyridin-3-yl]-3H-imidazo[4,5-b]pyridin-7-amine]",6.2,>10
"CCn1c(-c2cnc(C)nc2)nc2c(NC3(C(=O)N4CCC(F)(F)CC4)CC3)ncnc21 [Compound 2-3, N-{1-[(4,4-difluoropiperidin-1-yl)carbonyl]cyclopropyl}-9-ethyl-8-(2-methylpyrimidin-5-yl)-9H-purin-6-amine]",590,>10
"CCn1c(-c2cnc(C)nc2)nc2c(N[C@@H](CN(C)C)C(=O)N3C[C@@H](C)O[C@@H](C)C3)ncnc21 [Compound 2-51, (2S)-3-[(cis)-2,6-dimethylmorpholin-4-yl]-N-2-[9-ethyl-8-(2-methylpyrimidin-5-yl)-9H-purin-6-yl]-N-1-,N-1-dimethyl-3-oxopropane-1,2-diamine]",420,>10
"CC[C@H](Nc1ncnc2c1nc(-c1cnc(C)nc1)n2CC)C(=O)N1CC(=O)N(C)C(C)C1 (single isomer, unassigned) [Compound 4-6, (S or R)-4-[(2S)-2-{[9-ethyl-8-(2-methylpyrimidin-5-yl)-9H-purin-6-yl]amino}butanoyl]-1,6-dimethylpiperazin-2-one]",26,>10
"CC[C@H](Nc1ncnc2c1nc(-c1cnc(C)nc1)n2CC)C(=O)N1CCS(=O)(=O)CC1 [Compound 2-8, N-{(1S)-1-[(1,1-dioxidothiomorpholin-4-yl)carbonyl]propyl}-9-ethyl-8-(2-methylpyrimidin-5-yl)-9H-purin-6-amine]",31,>10
"CCn1c(-c2cnc(C)nc2)nc2c(N[C@H](CC(=O)N3C[C@@H](C)O[C@@H](C)C3)c3ccccc3)ncnc21 [Compound 2-56, N-{(1R)-3-[(cis)-2,6-dimethylmorpholin-4-yl]-3-oxo-1-phenylpropyl}-9-ethyl-8-(2-methylpyrimidin-5-yl)-9H-purin-6-amine]",610,>10
"CCC(Oc1ncnc2c1nc(-c1cnn(CC)c1C)n2C)C(=O)N1CCOCC1 (racemic) [Compound 1-1, (R and S)-8-(1-ethyl-5-methyl-1H-pyrazol-4-yl)-9-methyl-6-[1-(morpholin-4-ylcarbonyl)propoxy]-9H-purine]",320,>10
"CC[C@H](Nc1ncnc2c1nc(-c1cnc(C)nc1)n2CC)C(=O)N1C[C@@H](C)C(F)(F)[C@@H](C)C1 [Compound 4-4, N-[(1S)-1-{[cis-4,4-difluoro-3,5-dimethylpiperidin-1-yl]carbonyl}propyl]-9-ethyl-8-(2-methylpyrimidin-5-yl)-9H-purin-6-amine]",4.8,>10
"CCn1c(-c2cnc(C)nc2)nc2c(NC[C@H](C)C(=O)N3C[C@@H](C)O[C@@H](C)C3)ncnc21 [Compound 2-54, N-{(2S)-3-[(cis)-2,6-dimethylmorpholin-4-yl]-2-methyl-3-oxopropyl}-9-ethyl-8-(2-methylpyrimidin-5-yl)-9H-purin-6-amine]",250,>10
"CCn1c(-c2cnc(C)nc2)nc2c(N[C@@H](CC(N)=O)C(=O)N3C[C@@H](C)O[C@@H](C)C3)ncnc21 [Compound 2-41, (3S)-4-[(cis)-2,6-dimethylmorpholin-4-yl]-3-{[9-ethyl-8-(2-methylpyrimidin-5-yl)-9H-purin-6-yl]amino}-4-oxobutanamide]",110,>10
"CC[C@H](Nc1ncnc2c1nc(-c1cnc(C)nc1)n2CC)C(=O)N1CCC(C)C1 (mixture of isomers) [Compound 2-18, 9-ethyl-8-(2-methylpyrimidin-5-yl)-N-{(1S)-1-[((S and R)-3-methylpyrrolidin-1-yl)carbonyl]propyl}-9H-purin-6-amine]",31,>10
"CC[C@H](Nc1ncnc2c1nc(-c1cnc(C)nc1)n2CC)C(=O)N1CCOC2(CC2)C1 [Compound 2-29, 9-ethyl-8-(2-methylpyrimidin-5-yl)-N-[(1S)-1-(4-oxa-7-azaspiro[2.5]oct-7-ylcarbonyl)propyl]-9H-purin-6-amine]",11,>10
"CCn1ncc(-c2nc3c(NC(C)C(=O)N4CCOCC4)ncnc3n2C)c1C (single isomer, unassigned) [Compound 1-7, (R or S)-8-(1-ethyl-5-methyl-1H-pyrazol-4-yl)-9-methyl-N-(1-methyl-2-morpholin-4-yl-2-oxoethyl)-9H-purin-6-amine]",24,>10
"CCn1c(-c2cnc(C)nc2)nc2c(N[C@H](C(=O)N3C[C@@H](C)O[C@@H](C)C3)C(C)(C)C)ncnc21 [Compound 2-42, N-[(1S)-1-{[(cis)-2,6-dimethylmorpholin-4-yl]carbonyl}-2,2-dimethylpropyl]-9-ethyl-8-(2-methylpyrimidin-5-yl)-9H-purin-6-amine]",5.3,>10
"CCn1c(-c2cnc(C)nc2)nc2c(NC[C@@H](C)C(=O)N3C[C@@H](C)O[C@@H](C)C3)ncnc21 [Compound 2-55, N-{(2R)-3-[(cis)-2,6-dimethylmorpholin-4-yl]-2-methyl-3-oxopropyl}-9-ethyl-8-(2-methylpyrimidin-5-yl)-9H-purin-6-amine]",20,>10
"CCC(Nc1ncnc2c1nc(-c1cnc(C)nc1)n2CC)C(=O)N1CC(O)(C2CC2)C1 (single isomer, unassigned) [Compound 4-1, (S or R)-3-cyclopropyl-1-(2-{[9-ethyl-8-(2-methylpyrimidin-5-yl)-9H-purin-6-yl]amino}butanoyl)azetidin-3-ol]",30,>10
